Assay results taken from PubChem BioAssay (NCI).
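Five compound concentrations were applied to cells in 96-well plates for 48 hours; endpoints were derived by simple linear interpolation of the resulting dose-response curve. TGI denotes the concentration required for complete inhibition of growth.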

Experiments:
Experiment in all cases: DTP human tumour cell line panel, 48 h
[1] = system: 786-0 renal
[2] = system: A498 renal
[3] = system: A549 NSCLC
[4] = system: ACHN renal
[5] = system: CAKI-1 renal
[6] = system: CCRF-CEM leukemia
[7] = system: COLO 205 colon
[8] = system: DU-145 prostate
[9] = system: EKVX NSCLC
[10] = system: HCC-2998 colon
[11] = system: HCT-116 colon
[12] = system: HCT-15 colon
[13] = system: HL-60(TB) leukemia
[14] = system: HOP-62 NSCLC
[15] = system: HOP-92 NSCLC
[16] = system: HS 578T breast
[17] = system: HT29 colon
[18] = system: IGROV1 ovarian
[19] = system: K-562 leukemia
[20] = system: KM12 colon
[21] = system: LOX IMVI melanoma
[22] = system: M14 melanoma
[23] = system: MALME-3M melanoma
[24] = system: MCF7 breast
[25] = system: MDA-MB-231 breast
[26] = system: MDA-MB-435
[27] = system: MDA-N
[28] = system: MOLT-4 leukemia
[29] = system: NCI-H226 lung
[30] = system: NCI-H23 lung
[31] = system: NCI-H460 lung
[32] = system: NCI-H522 lung
[33] = system: NCI/ADR-RES ovarian
[34] = system: OVCAR-3 ovarian
[35] = system: OVCAR-4 ovarian
[36] = system: OVCAR-5 ovarian
[37] = system: OVCAR-8 ovarian
[38] = system: PC-3 prostate
[39] = system: RXF 393 renal
[40] = system: SF-268 CNS
[41] = system: SF-295 CNS
[42] = system: SF-539 CNS
[43] = system: SK-MEL-2 melanoma
[44] = system: SK-MEL-28 melanoma
[45] = system: SK-MEL-5 melanoma
[46] = system: SK-OV-3 ovarian
[47] = system: SN12C renal
[48] = system: SNB-19 CNS
[49] = system: SR leukemia
[50] = system: SW-620 colon
[51] = system: T-47D breast
[52] = system: TK-10 renal
[53] = system: U251 CNS
[54] = system: UACC-257 melanoma
[55] = system: UACC-62 melanoma
[56] = system: UO-31 renal

## COC(=O)C1(CCCCCBr)CCCCCCCCCCC1=O (stereo unspecified)
[1]
  TGI: > 100 µM
[2]
  TGI: 64.7 µM
[3]
  TGI: > 100 µM
[4]
  TGI: > 100 µM
[5]
  TGI: 53.9 µM
[6]
  TGI: 45 µM
[7]
  TGI: > 100 µM
[8]
  TGI: > 100 µM
[9]
  TGI: > 100 µM
[10]
  TGI: > 100 µM
[11]
  TGI: > 100 µM
[12]
  TGI: > 100 µM
[13]
  TGI: 49.9 µM
[14]
  TGI: > 100 µM
[15]
  TGI: > 100 µM
[16]
  TGI: > 100 µM
[17]
  TGI: > 100 µM
[18]
  TGI: 87.2 µM
[19]
  TGI: > 100 µM
[20]
  TGI: > 100 µM
[21]
  TGI: 63.3 µM
[22]
  TGI: > 100 µM
[23]
  TGI: 47.6 µM
[24]
  TGI: 42.2 µM
[25]
  TGI: 84.6 µM
[26]
  TGI: 87.5 µM
[27]
  TGI: > 100 µM
[28]
  TGI: 35.6 µM
[29]
  TGI: 66.6 µM
[30]
  TGI: > 100 µM
[31]
  TGI: > 100 µM
[32]
  TGI: 47.5 µM
[33]
  TGI: > 100 µM
[34]
  TGI: > 100 µM
[35]
  TGI: > 100 µM
[36]
  TGI: > 100 µM
[37]
  TGI: > 100 µM
[38]
  TGI: > 100 µM
[39]
  TGI: 51.9 µM
[40]
  TGI: > 100 µM
[41]
  TGI: > 100 µM
[42]
  TGI: > 100 µM
[43]
  TGI: 70.1 µM
[44]
  TGI: 92.2 µM
[45]
  TGI: 35.1 µM
[46]
  TGI: > 100 µM
[47]
  TGI: > 100 µM
[48]
  TGI: > 100 µM
[49]
  TGI: 55.7 µM
[50]
  TGI: > 100 µM
[51]
  TGI: > 100 µM
[52]
  TGI: > 100 µM
[53]
  TGI: > 100 µM
[54]
  TGI: 70.2 µM
[55]
  TGI: > 100 µM
[56]
  TGI: 31.8 µM
